Measured values: article PMC7956819, “Peptides from the Intestinal Tract of Breast Milk-Fed Infants Have Antimicrobial and Bifidogenic Activity” (International Journal of Molecular Sciences, 2021)
Peptide text beside a SMILES is read from it.

How the values were obtained:
Format in all cases: cell-based
[1] = system: Staphylococcus aureus ATCC 12600; conditions: ATCC 12600, 18 h
Procedure: (§1) The bioactivity of the intestinal peptide extracts was determined via the microdilution method. Antimicrobial activity was screened with E. coli and S. aureus as representatives of common infant pathogens responsible for infectious disease, and growth-promoting activity was screened with B. infantis, one of the ideal colonizers of the infant gut. For the antimicrobial assays, colonies of bacteria were selected and inoculated in 2 mL of MHB and incubated at 37 °C for 24 h. The inoculum was diluted to 2 × 10^5 CFU/mL with MHB. For the growth-promoting assays, 100 µL of stock bacteria were inoculated in 10 mL of reinforced clostridial broth supplemented with 0.1% ascorbic acid and incubated under anaerobic conditions (BD BBL™ GasPak™) at 37 °C for 24 h. Optical density was measured at 600 nm, and the inoculum was diluted to an optical density of 0.05 with reinforced clostridial broth.
(§2) The intestinal peptide extracts were serially diluted with PBS to concentrations of 1×, 1/2×, 1/4×, 1/8×, 1/16×, 1/32×, 1/64×, and 1/128×. In a 96-well plate, 50 µL of each dilution was incubated with 50 µL of inoculum in duplicate, along with a negative control of 50 µL of inoculum with 50 µL of pure PBS and a sterility test of 50 µL of peptide with 50 µL of broth. Growth was determined by optical density readings at 600 nm (OD600) taken at 0 h (T0) and 18 h (T18). The following equation was used to determine percent inhibition or promotion of bacterial growth:
(§3) Candidate peptides were synthesized and dissolved in sterile nanopure water. Antimicrobial and growth-promoting assays were carried out as described above with serial dilutions ranging from […] to 15.6 μg/mL. Minimum inhibitory concentration (MIC) was determined by the concentration at which all visible growth was inhibited.

[2] = system: Bifidobacterium longum spp. infantis ATCC 15697; conditions: ATCC 15697, 18 h
Procedure: as §1, §2, §3

[3] = system: Escherichia coli BL21 (DE3); conditions: BL21, 18 h
Procedure: as §1, §2, §3

| S. aureus MIC [1] [µg/mL] | B. infantis MIC [2] [µg/mL] | E. coli MIC [3] [µg/mL] | Compound |
| --- | --- | --- | --- |
| 2500 | >3000 | 2500 | CC[C@H](C)[C@H](NC(=O)[C@@H]1CCCN1C(=O)[C@@H](N)CCC(=O)O)C(=O)N1CCC[C@H]1C(=O)N[C@@H](CC(C)C)C(=O)N[C@@H](CCC(=O)O)C(=O)N[C@@H](CO)C(=O)N[C@@H](CCCNC(=N)N)C(=O)N[C@@H](CCC(=O)O)C(=O)N[C@@H](CCC(=O)O)C(=O)O [Peptide 5] (H-EPIPLESREE-OH) |
| >3000 | >3000 | >3000 | CC[C@H](C)[C@H](NC(=O)[C@H](CCC(N)=O)NC(=O)[C@H](C)NC(=O)[C@H](Cc1c[nH]cn1)NC(=O)[C@@H]1CCCN1C(=O)[C@H](CCCNC(=N)N)NC(=O)[C@@H](NC(=O)[C@@H](NC(=O)[C@H](C)NC(=O)[C@@H]1CCCN1C(=O)[C@H](CC(N)=O)NC(=O)[C@H](C)NC(=O)[C@@H](N)Cc1ccc(O)cc1)C(C)C)C(C)C)C(=O)N1CCC[C@H]1C(=O)N[C@@H](CCC(N)=O)C(=O)N[C@@H](CCCNC(=N)N)C(=O)O [Peptide 6] (H-YANPAVVRPHAQIPQR-OH; N-terminus and C-terminus assumed) |
| >3000 | >3000 | >3000 | CC[C@H](C)[C@H](NC(=O)[C@@H](NC(=O)[C@@H]1CCCN1C(=O)[C@H](CC(C)C)NC(=O)[C@H](C)NC(=O)[C@H](CO)NC(=O)[C@@H](NC(=O)[C@@H](N)CCSC)[C@@H](C)O)[C@@H](C)CC)C(=O)N[C@@H](CCC(N)=O)C(=O)N[C@@H](CCCCN)C(=O)O [Peptide 10] (H-MTSALPIIQK-OH) |

Continued, compound first:

| Compound | S. aureus MIC [1] [µg/mL] | B. infantis MIC [2] [µg/mL] | E. coli MIC [3] [µg/mL] |
| --- | --- | --- | --- |
| CC(C)C[C@H](NC(=O)[C@H](CC(N)=O)NC(=O)[C@@H]1CCCN1C(=O)[C@@H](N)CCCNC(=N)N)C(=O)N[C@@H](Cc1c[nH]cn1)C(=O)N1CCC[C@H]1C(=O)N[C@@H](CO)C(=O)O [Peptide 7] (H-RPNLHPS-OH) | 3000 | >3000 | 3000 |
| NCCCC[C@H](NC(=O)CNC(=O)[C@H](Cc1ccccc1)NC(=O)[C@H](CCCCN)NC(=O)[C@@H](N)CCC(=O)O)C(=O)N[C@@H](CC(=O)O)C(=O)N[C@@H](CCCCN)C(=O)N[C@@H](CO)C(=O)N1CCC[C@H]1C(=O)N[C@@H](CCCCN)C(=O)N[C@@H](Cc1ccccc1)C(=O)N[C@@H](CCC(N)=O)C(=O)O [Peptide 8] (H-EKFGKDKSPKFQ-OH) | 3000 | >3000 | 3000 |
| CSCC[C@H](NC(=O)[C@@H](N)CC(=O)O)C(=O)N[C@@H](CC(C)C)C(=O)N[C@H](C(=O)N[C@H](C(=O)N[C@@H](CC(=O)O)C(=O)N1CCC[C@H]1C(=O)N[C@@H](CCCCN)C(=O)O)C(C)C)C(C)C [Peptide 9] (H-DMLVVDPK-OH; N-terminus and C-terminus assumed) | 3000 | >3000 | 3000 |
| CC(C)C[C@H](NC(=O)[C@H](CC(=O)O)NC(=O)[C@H](CCCCN)NC(=O)[C@@H](N)Cc1ccccc1)C(=O)NCC(=O)N[C@@H](CCC(=O)O)C(=O)N[C@@H](CCC(=O)O)C(=O)N[C@@H](CC(N)=O)C(=O)N[C@@H](Cc1ccccc1)C(=O)N[C@@H](CCCCN)C(=O)O [Peptide 11] (H-FKDLGEENFK-OH) | 3000 | >3000 | 3000 |
